From ChEMBL document CHEMBL5241072, “Overview of piperlongumine analogues and their therapeutic potential” (Eur J Med Chem, 2021)

Assays:
Oryctolagus cuniculus [1] = species on record: Oryctolagus cuniculus; test: Antiplatelet activity in rabbit plasma assessed as inhibition of arachidonic acid induced platelet aggregation at 150 uM by aggregometer analysis relative to control; type: functional; parameters: scale not given: the % may be the effect or the level left
NSCLC = test: Cytotoxicity against human NSCLC cells assessed as cell growth inhibition; type: functional, cell-based
[2] = Cytotoxicity against mouse RAW264.7 cells assessed as cell growth inhibition; type: toxicity, cell-based
HL-60 [3] = test: Antiproliferative activity against human HL-60 cells assessed as cell growth inhibition; type: functional, cell-based
HCT-8 [4] = test: Antiproliferative activity against human HCT-8 cells assessed as cell growth inhibition; type: functional, cell-based
HL-60 [5] = test: Antiproliferative activity against human HL-60 cells assessed as cell growth inhibition in presence of piperlongumine; type: functional, cell-based
HCT-8 [6] = test: Antiproliferative activity against human HCT-8 cells assessed as cell growth inhibition in presence of piperlongumine; type: functional, cell-based
MDA-MB-435 [7] = test: Antiproliferative activity against human MDA-MB-435 cells assessed as cell growth inhibition; type: functional, cell-based
MDA-MB-435 [8] = test: Antiproliferative activity against human MDA-MB-435 cells assessed as cell growth inhibition in presence of piperlongumine; type: functional, cell-based
SF-295 [9] = test: Antiproliferative activity against human SF-295 cells assessed as cell growth inhibition; type: functional, cell-based
SF-295 [10] = test: Antiproliferative activity against human SF-295 cells assessed as cell growth inhibition in presence of piperlongumine; type: functional, cell-based
Hepatitis B virus [11] = test: Antiviral activity against HBV infected in human HepG2.2.15 cells assessed as reduction in extracellular HBV DNA level; type: functional, organism-based
Hepatitis B virus [12] = test: Antiviral activity against HBV infected in human HepG2.2.15 cells assessed as reduction in intracellular HBV DNA level; type: functional, organism-based
20S proteasome = test: Inhibition of human 20S proteasome; type: protein-complex assay
Oryctolagus cuniculus [13] = species on record: Oryctolagus cuniculus; test: Antiplatelet activity in rabbit plasma assessed as inhibition of arachidonic acid induced platelet aggregation by microplate reader analysis; type: functional
Oryctolagus cuniculus [14] = species on record: Oryctolagus cuniculus; test: Antiplatelet activity in rabbit plasma assessed as inhibition of ADP induced platelet aggregation by microplate reader analysis; type: functional
A549 = test: Antiproliferative activity against human A549 cells assessed as cell growth inhibition; type: functional, cell-based
KB = test: Antiproliferative activity against human KB cells assessed as cell growth inhibition; type: functional
P388 = test: Antiproliferative activity against mouse P388 cells assessed as cell growth inhibition; type: functional, cell-based
CCRF-CEM = test: Antiproliferative activity against human CEM cells assessed as cell growth inhibition; type: functional, cell-based
K562 = test: Antiproliferative activity against human K562 cells assessed as cell growth inhibition; type: functional, cell-based
Jurkat = test: Antiproliferative activity against human Jurkat cells assessed as cell growth inhibition; type: functional, cell-based
MOLT-4 = test: Antiproliferative activity against human MOLT-4 cells assessed as cell growth inhibition; type: functional, cell-based
HT-29 = test: Antiproliferative activity against human HT-29 cells assessed as cell growth inhibition; type: functional, cell-based
HCT-116 = test: Antiproliferative activity against human HCT-116 cells assessed as cell growth inhibition; type: functional, cell-based
MCF7 = test: Antiproliferative activity against human MCF7 cells assessed as cell growth inhibition; type: functional, cell-based
MDA-MB-231 [15] = test: Antiproliferative activity against human MDA-MB-231 cells assessed as cell growth inhibition; type: functional, cell-based
LN-229 = test: Antiproliferative activity against human LN-229 cells assessed as cell growth inhibition; type: functional, cell-based
[16] = Antiproliferative activity against human U87 cells assessed as cell growth inhibition; type: functional, cell-based, U-87MG ATCC; conditions: U-87 MG
8-MG-BA = test: Antiproliferative activity against human 8-MG-BA cells assessed as cell growth inhibition; type: functional, cell-based
DU-145 = test: Antiproliferative activity against human DU-145 cells assessed as cell growth inhibition; type: functional, cell-based
PC-3 = test: Antiproliferative activity against human PC-3 cells assessed as cell growth inhibition; type: functional, cell-based
[17] = Antiproliferative activity against human NCI-H660 cells assessed as cell growth inhibition; type: functional, cell-based
[18] = Antiproliferative activity against human OC2 cells assessed as cell growth inhibition; type: functional, cell-based
[19] = Antiproliferative activity against human OCSL cell assessed as cell growth inhibition; type: functional, cell-based
MKN-45 = test: Antiproliferative activity against human MKN-45 cells assessed as cell growth inhibition; type: functional, cell-based
AGS = test: Antiproliferative activity against human AGS cells assessed as cell growth inhibition; type: functional, cell-based
A-375 = test: Antiproliferative activity against human A-375 cells assessed as cell growth inhibition; type: functional, cell-based
[20] = Antiproliferative activity against human A875 cells assessed as cell growth inhibition; type: functional, cell-based
[21] = Inhibition of TrxR in human MDA-MB-231 cells; type: cell-based
HGC-27 [22] = test: Antiproliferative activity against human HGC-27 cells assessed as cell growth inhibition; type: functional, cell-based
[23] = Inhibition of TrxR in human HGC-27 cells; type: cell-based
HGC-27 [24] = test: Potency index, ratio of piperlongumine IC50 to compound IC50 for inhibition of TrxR in human HGC-27 cells; type: cell-based
HGC-27 [25] = test: Potency index, ratio of piperlongumine IC50 to compound IC50 for antiproliferative activity against human HGC-27 cells; type: functional
MDA-MB-231 [26] = test: Antitumor activity against BALB/c mouse xenografted with human MDA-MB-231 cells assessed as tumor growth inhibition at 25 mg/kg, ip measured after 21 days relative to control; type: functional; conditions: MDA-MB-231, 504 h, time 21 day, read-out: TGI
MDA-MB-231 [27] = test: Potency index, ratio of piperlongumine IC50 to compound IC50 for inhibition of TrxR in human MDA-MB-231 cells; type: cell-based
NCI-H1703 = test: Antiproliferative activity against human NCI-H1703 cells assessed as cell growth inhibition; type: functional, cell-based
HeLa = test: Antiproliferative activity against human HeLa cells assessed as cell growth inhibition; type: functional, cell-based
PC-12 = test: Neuroprotective activity against H2O2-induced cytotoxicity in rat PC-12 cells assessed as cell survival rate preincubated for 24 hrs followed by H2O2 stimulation and measured after 24 hrs by MTT assay relative to control; type: functional; conditions: time 48 hrs

O=C(/C=C/c1cnccn1)N1CCC=C(Cl)C1=O
Activity (Oryctolagus cuniculus [1]): 100%

COc1cc(/C=C2\CN(C=O)C/C(=C\c3cc(OC)c(OC)c(OC)c3)C2=O)cc(OC)c1OC
IC50 (NSCLC): 0.6 µM

COc1cc(/C=C/C(=O)C2CCC=CC2=O)cc(OC)c1OC (configuration not stated)
IC50 [2]: 6 µM

O=c1[nH]cc(F)c(=O)[nH]1 [FLUOROURACIL]
IC50 (HL-60 [3]): 84.7 µM | IC50 (HCT-8 [4]): 11.2 µM | IC50 (HL-60 [5]): 38.1 µM | IC50 (HCT-8 [6]): 4.7 µM | IC50 (MDA-MB-435 [7]): 9.19 µM | IC50 (MDA-MB-435 [8]): 1.95 µM | IC50 (SF-295 [9]): 2.33 µM | IC50 (SF-295 [10]): 0.49 µM

CC(=O)Nc1ccc(-c2cc(C)c(=O)n(Cc3ccc(Cl)cc3)n2)cc1
IC50 (Hepatitis B virus [11]): 1.5 µM | IC50 (Hepatitis B virus [12]): 3 µM

COc1cc(/C=C/C(=O)N2CCC=CC2=O)cc(OC)c1OC [PIPLARTINE]
IC50 (20S proteasome): 15 µM | Activity (Oryctolagus cuniculus [1]): 76.4% | IC50 (Oryctolagus cuniculus [13]): 20.8 µM | IC50 (Oryctolagus cuniculus [14]): 6710 µM | IC50 (A549): 10.2 µM | IC50 (KB): 5.6 µM | IC50 (P388): 2.8 µM | IC50 (HL-60 [3]): 5.3 µM | IC50 (CCRF-CEM): 4.4 µM | IC50 (K562): 5.7 µM | IC50 (Jurkat): 5.3 µM | IC50 (MOLT-4): 1.7 µM | IC50 (HT-29): 1.4 µM | IC50 (HCT-8 [4]): 2.2 µM | IC50 (HCT-116): 13.9 µM | IC50 (MCF7): 25 µM | IC50 (MDA-MB-231 [15]): 1.72 µM | IC50 (LN-229): 10 µM | IC50 [16]: 10 µM | IC50 (8-MG-BA): 10 µM | IC50 (DU-145): 3.4 µM | IC50 (PC-3): 4.9 µM | IC50 [17]: 0.4 µM | IC50 [18]: 7.4 µM | IC50 [19]: 11.3 µM | IC50 (MKN-45): 20 µM | IC50 (AGS): 20 µM | IC50 (A-375): 2.5 µM | IC50 [20]: 2.5 µM | IC50 (NSCLC): 9.2 µM | IC50 [21]: 1.52 µM | IC50 (HGC-27 [22]): 7.53 µM

COCCOCCOc1ccc(/C=C2\CCC=CC2=O)cc1OC
IC50 [23]: 0.15 µM | IC50 (HGC-27 [22]): 0.76 µM | Ratio IC50 (HGC-27 [24]): 12 | Ratio IC50 (HGC-27 [25]): 10

O=C1C=CCC/C1=C\c1ccc(Oc2ccc(/C=C3\CCC=CC3=O)cc2)cc1
IC50 (MDA-MB-231 [15]): 0.63 µM | IC50 [21]: 0.16 µM | inhibition in vivo at 25 mg/kg (MDA-MB-231 [26]): 67% | Ratio IC50 (MDA-MB-231 [27]): 10

COc1cc(/C=C/C(=O)N2CCC=C(C#CC3CC3)C2=O)cc(OC)c1OC
IC50 (NCI-H1703): 0.7 µM | IC50 (HeLa): 1.3 µM

COc1cc(OC)c(/C=C2\CC/C(=C\c3cc(OC)c(OC)c(OC)c3)C2=O)c(OC)c1
Survival (PC-12): 80%

COc1cc(/C=C/C(=O)N2CCC=C(Cl)C2=O)cc(OC)c1OC
IC50 (A549): 4.14 µM

O=C1C=CCCN1C(=O)/C=C/c1ccc2ccccc2n1
IC50 (Oryctolagus cuniculus [13]): 0.13 µM | IC50 (Oryctolagus cuniculus [14]): 403 µM

O=C(/C=C/c1ccc2ccccc2n1)N1CCC=C(Cl)C1=O
IC50 (Oryctolagus cuniculus [13]): 0.108 µM | IC50 (Oryctolagus cuniculus [14]): 3140 µM

C=CC(=O)NC(=O)/C=C/c1cc(OC)c(OC)c(OC)c1
IC50 (20S proteasome): 2.6 µM
